This note sets out measurements from patent publication US20220049015A1, “COMPOSITIONS AND METHODS FOR THE TREATMENT AND/OR PREVENTION OF HER2+ CANCERS” (DUKE UNIVERSITY, priority 2018, published 2022).

The experiment relates to MM3MG-HER2Δ16 cells. Put plainly: In vitro ADCP and ADCC by bone marrow derived macrophages (BMDM). Format: cell-based, mouse. The note with it: Concanamycin A 1 μM in BMDM co-culture.

Experimental: MM3MG-HER2Δ16 cells were labeled with Brilliant Violet 450 Dye, and co-cultured with BMDM (3:1 ratio) with control or anti-HER2 antibodies (10 μg/mL). ADCP rates were measured by percentage of BMDM uptake of labeled tumor cells (CD45+and BV450+), and Antibody-dependent-cellular-cytotoxicity (ADCC) rates were measured by percentage of dying free tumor cells (CD45− and LIVE/DEAD stain+). […] All data represent mean ±SEM, **P<0.01, ***P<0.001, ****P<0.0001.
ADCP and ADCC by macrophages—Bone marrow derived macrophages (BMDM) were generated from mouse tibia, differentiated for 10 days with 50 ng/mL mouse MCSF (Peprotech 315-02). Briefly, 50 million bone marrow cells were plated in 10 cm^2 tissue culture dish with MCSF on day 0. Unattached cells in supernatant were removed and fresh media+MC SF were added on day 3, day 6 and day 9. BMDM were used for ADCP/ADCC assays on day 10. Tumor cells MM3MG-HER2416 were labeled with Brilliant Violet 450 Dye (BD 562158) according to manufacturer's protocol, and incubated with control or anti-HER2 antibodies (10 μg/mL) in 96-wells (100,000 cells/well) for 30 minutes at 37° C. BMDM were then added for co-culture at a 3:1 ratio of Tumor vs BMDM. After 2 hours co-culture, phagocytosis of BV450-labeled tumor cells by BMDM were analyzed by FACS with CD45-APC staining and Live-death (Red) staining. […]

Regarding `C/C=C/[C@H]1O[C@@](O)([C@@H](C)[C@H](O)[C@H](C)[C@H]2OC(=O)/C(OC)=C/C(C)=C/[C@@H](C)[C@@H](O)[C@@H](CC)[C@@H](O)[C@H](C)C/C(C)=C/C=C/[C@@H]2OC)C[C@@H](O[C@H]2C[C@@H](O)[C@H](OC(N)=O)[C@@H](C)O2)[C@@H]1C` [Concanamycin A], the “effect of ADCC inhibitor on HER2 mAb activities” value was “had no effect on HER2 mAb activities”.
